Blank lines part the entries; values can stand above or below the molecule they belong to.
Target: wild-type un-phosphorylated FGFR3 protein (Homo sapiens, UniProt P22607)
Experiment: FGFR Enzymatic Assay (FRET detection of peptide phosphorylation)
Format: biochemical
Settings: pre-incubated for 4 hours, read-out: FGFR3_Ki
Procedure: The inhibitor potency of the exemplified compounds was determined in an enzyme discontinuous assay that measures peptide phosphorylation using FRET measurements to detect product formation. Inhibitors were serially diluted in DMSO and a volume of 0.2 μL was transferred to the wells of a 384-well plate. A 5 μL/well volume of enzyme isoforms of FGFR (−1, −2, −3 wild-type and mutant isoforms, −4) including phosphorylated and un-phosphorylated proteins diluted in assay buffer (50 mM HEPES, 10 mM MgCl2, 1 mM EGTA, 0.01% Tween-20, 5 mM DTT, pH 7.5) was added to the plate and pre-incubated with inhibitor for 5 to 15 minutes at ambient temperature. Appropriate controls (enzyme blank and enzyme with no inhibitor) were included on the plate. […] The ATP Km values were pre-determined in a separate series of experiments. The reaction plate was incubated at 25° C. for 1 hr and the reactions were ended with the addition of 5 μL/well of quench solution (50 mM Tris, 150 mM NaCl, 0.5 mg/mL BSA, pH 7.8; 45 mM EDTA, 600 nM staurosporin, with Perkin Elmer Lance Reagents at 3.75 nM Eu-antibody PY20 and 180 nM APC-Streptavidin). The plate was allowed to equilibrate for ˜10 minutes at ambient temperature before scanning on a PheraStar plate reader (BMG Labtech) instrument.
Either GraphPad prism or XLfit was used to analyze the data. The IC50 values were derived by fitting the data to a four parameter logistic equation producing a sigmoidal dose-response curve with a variable Hill coefficient. Prism equation: Y=Bottom+(Top−Bottom)/(1+10^((LogIC50−X)*Hill slope)); XLfit equation: Y=(A+((B−A)/(1+((X/C)^D)))) where X is the logarithm of inhibitor concentration and Y is the response.
The data in Table 1 was measured in wild-type un-phosphorylated FGFR3 protein.

wild-type un-phosphorylated FGFR3 protein, sequence (P22607 23-806): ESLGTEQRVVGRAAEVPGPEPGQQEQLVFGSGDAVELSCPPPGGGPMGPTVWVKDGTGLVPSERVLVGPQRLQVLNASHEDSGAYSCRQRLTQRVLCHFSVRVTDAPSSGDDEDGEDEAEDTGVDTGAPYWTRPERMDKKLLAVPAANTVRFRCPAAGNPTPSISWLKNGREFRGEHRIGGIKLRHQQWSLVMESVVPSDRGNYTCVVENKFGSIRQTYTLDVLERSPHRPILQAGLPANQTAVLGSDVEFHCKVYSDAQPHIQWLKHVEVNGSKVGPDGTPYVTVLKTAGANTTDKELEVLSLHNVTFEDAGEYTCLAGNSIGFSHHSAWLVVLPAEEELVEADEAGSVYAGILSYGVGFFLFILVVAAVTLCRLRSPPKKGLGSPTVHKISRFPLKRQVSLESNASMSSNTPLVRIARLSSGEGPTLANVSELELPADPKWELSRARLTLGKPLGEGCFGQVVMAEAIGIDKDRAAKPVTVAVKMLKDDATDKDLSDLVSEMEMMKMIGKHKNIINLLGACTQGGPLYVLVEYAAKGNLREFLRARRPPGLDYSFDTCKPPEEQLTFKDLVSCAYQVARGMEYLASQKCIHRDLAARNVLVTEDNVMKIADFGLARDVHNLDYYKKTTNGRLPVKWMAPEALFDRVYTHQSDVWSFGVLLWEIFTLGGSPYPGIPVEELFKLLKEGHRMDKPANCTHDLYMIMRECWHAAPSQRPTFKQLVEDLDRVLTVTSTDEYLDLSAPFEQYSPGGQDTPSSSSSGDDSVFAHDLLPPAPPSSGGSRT

Compound: C/C=C/c1c(-c2ccccc2Cl)nc2c3cc(-c4cnn(C)c4)cnc3ccn12 [Example 3, (E)-2-(2-Chlorophenyl)-9-(1-methyl-1H-pyrazol-4-yl)-3-(prop-1-en-1-yl)imidazo[2,1-f][1,6]naphthyridine]
Ki: 10 to 100 nM

Compound: Cn1cc(-c2cnc3ccn4c(-c5ccco5)c(-c5ccccc5Cl)nc4c3c2)cn1 [Example 6, 2-(2-Chlorophenyl)-3-(furan-2-yl)-9-(1-methyl-1H-pyrazol-4-yl)imidazo[2,1-f][1,6]naphthyridine]
Ki: 10 to 100 nM

Compound: Cn1cc(-c2cnc3ccn4c(C#N)c(-c5ccccc5Cl)nc4c3c2)cn1 [Example 7, 2-(2-Chlorophenyl)-9-(1-methyl-1H-pyrazol-4-yl)imidazo[2,1-f][1,6]naphthyridine-3-carbonitrile]
Ki: 100 to 400 nM

Compound: Cn1cc(-c2cnc3ccn4c(C5CC5)c(-c5ccccc5Cl)nc4c3c2)cn1 [Example 8, 2-(2-Chlorophenyl)-3-cyclopropyl-9-(1-methyl-1H-pyrazol-4-yl)imidazo[2,1-f][1,6]naphthyridine]
Ki: < 10 nM

Compound: CCc1c(-c2ccccc2Cl)nc2c3cc(-c4cnn(C)c4)cnc3ccn12 [Example 9, 2-(2-Chlorophenyl)-3-ethyl-9-(1-methyl-1H-pyrazol-4-yl)imidazo[2,1-f][1,6]naphthyridine]
Ki: 10 to 100 nM

Compound: Cn1cc(-c2cnc3ccn4c(Cl)c(-c5ccccc5Cl)nc4c3c2)cn1 [Example 10, 3-Chloro-2-(2-chlorophenyl)-9-(1-methyl-1H-pyrazol-4-yl)imidazo[2,1-f][1,6]naphthyridine]
Ki: 10 to 100 nM

Compound: Cn1cc(-c2cnc3ccn4cc(-c5c(F)cccc5F)nc4c3c2)cn1 [Example 11, 2-(2,6-Difluorophenyl)-9-(1-methyl-1H-pyrazol-4-yl)imidazo[2,1-f][1,6]naphthyridine]
Ki: 10 to 100 nM

Compound: Cn1cc(-c2cnc3ccn4cc(-c5c(F)cccc5Cl)nc4c3n2)cn1 [Example 14, 9-(2-Chloro-6-fluorophenyl)-2-(1-methyl-1H-pyrazol-4-yl)imidazo[1′,2′:1,2]pyrido[3,4-b]pyrazine]
Ki: 10 to 100 nM

Compound: CC(=O)N[C@H]1CC[C@H](n2cc(-c3cnc4ccn5c(C6CC6)c(-c6ccccc6Cl)nc5c4c3)cn2)CC1 [Example 17, N-((1R,4R)-4-(4-(2-(2-Chlorophenyl)-3-cyclopropylimidazo[2,1-f][1,6]naphthyridin-9-yl)-1H-pyrazol-1-yl)cyclohexyl)acetamide]
Ki: < 10 nM

Compound: Cc1cccc(F)c1-c1nc2c3nc(-c4cnn(C)c4)cnc3ccc2n1C [Example 18, 2-(2-Fluoro-6-methylphenyl)-3-methyl-8-(1-methyl-1H-pyrazol-4-yl)-3H-imidazo[4,5-f]quinoxaline]
Ki: 10 to 100 nM

Compound: COc1ccc(-c2nc3c4nc(-c5cnn(C)c5)cnc4ccc3n2C)c(Cl)c1 [Example 19, 2-(2-Chloro-4-methoxyphenyl)-3-methyl-8-(1-methyl-1H-pyrazol-4-yl)-3H-imidazo[4,5-f]quinoxaline]
Ki: 100 to 400 nM

Compound: Cc1ccoc1-c1nc2c3nc(-c4cnn(C)c4)cnc3ccc2n1C [Example 20, 3-Methyl-8-(1-methyl-1H-pyrazol-4-yl)-2-(3-methylfuran-2-yl)-3H-imidazo[4,5-f]quinoxaline]
Ki: 100 to 400 nM

Compound: CN1CCC(c2nc3c4nc(-c5cnn(C)c5)cnc4ccc3n2C)CC1 [Example 23, 3-Methyl-8-(1-methyl-1H-pyrazol-4-yl)-2-(1-methylpiperidin-4-yl)-3H-imidazo[4,5-f]quinoxaline]
Ki: ≥ 400 nM

Compound: Cn1cc(-c2cnc3ccc4c(nc(N5[C@@H]6CC[C@H]5C(=O)NC6)n4C)c3n2)cn1 [Example 24, (1S,5R)-8-(3-Methyl-8-(1-methyl-1H-pyrazol-4-yl)-3H-imidazo[4,5-f]quinoxalin-2-yl)-3,8-diazabicyclo[3.2.1]octan-2-one]
Ki: ≥ 400 nM

Compound: Cc1c(-c2c(Cl)cccc2C(F)(F)F)nc2c3cc(-c4cnn([C@H]5CCN(C(=O)CO)C5)c4)cnc3ccn12 [Example 25, (S)-1-(3-(4-(2-(2-Chloro-6-(trifluoromethyl)phenyl)-3-methylimidazo[2,1-f][1,6]naphthyridin-9-yl)-1H-pyrazol-1-yl)pyrrolidin-1-yl)-2-hydroxyethan-1-one]
Ki: < 10 nM

Compound: Cc1c(-c2c(F)cccc2C#N)nc2c3cc(-c4cnn([C@H]5CCN(C(=O)CO)C5)c4)cnc3ccn12 [Example 27, (S)-3-Fluoro-2-(9-(1-(1-(2-hydroxyacetyl)pyrrolidin-3-yl)-1H-pyrazol-4-yl)-3-methylimidazo[2,1-f][1,6]naphthyridin-2-yl)benzonitrile]
Ki: 10 to 100 nM

Compound: COc1cccc(F)c1-c1nc2c3cc(-c4cnn([C@H]5CCN(C(=O)CO)C5)c4)cnc3ccn2c1C [Example 28, (S)-1-(3-(4-(2-(2-Fluoro-6-methoxyphenyl)-3-methylimidazo[2,1-f][1,6]naphthyridin-9-yl)-1H-pyrazol-1-yl)pyrrolidin-1-yl)-2-hydroxyethan-1-one]
Ki: 10 to 100 nM

Compound: Cc1cccc(-c2nc3c4cc(-c5cnn(C)c5)cnc4ccn3c2C)c1C [Example 29, 2-(2,3-Dimethylphenyl)-3-methyl-9-(1-methyl-1H-pyrazol-4-yl)imidazo[2,1-f][1,6]naphthyridine]
Ki: 10 to 100 nM

Compound: Cc1cc(CO)ccc1-c1nc2c3cc(-c4cnn(C)c4)cnc3ccn2c1C [Example 30, (3-Methyl-4-(3-methyl-9-(1-methyl-1H-pyrazol-4-yl)imidazo[2,1-f][1,6]naphthyridin-2-yl)phenyl)methanol]
Ki: 10 to 100 nM

Compound: Cc1c(-c2c(Cl)cccc2Cl)nc2c3cc(-c4cnn(C)c4)c(O)nc3ccn12 [Example 31, 2-(2,6-Dichlorophenyl)-3-methyl-9-(1-methyl-1H-pyrazol-4-yl)imidazo[2,1-f][1,6]naphthyridin-8-ol]
Ki: 10 to 100 nM

The remaining lines, values ahead:

Ki: 10 to 100 nM
Compound: Cc1c(-c2ccccc2Cl)nc2c3cc(-c4cnn(C)c4)cnc3ccn12 [Example 1, 2-(2-Chlorophenyl)-3-methyl-9-(1-methyl-1H-pyrazol-4-yl)imidazo[2,1-f][1,6]naphthyridine]

Ki: 100 to 400 nM
Compound: Cn1cc(-c2cnc3ccn4c(C5=CCCC5)c(-c5ccccc5Cl)nc4c3c2)cn1 [Example 2, 2-(2-Chlorophenyl)-3-(cyclopent-1-en-1-yl)-9-(1-methyl-1H-pyrazol-4-yl)imidazo[2,1-f][1,6]naphthyridine]

Ki: < 10 nM
Compound: COc1cc(OC)cc(-c2c(-c3ccccc3Cl)nc3c4cc(-c5cnn(C)c5)cnc4ccn23)c1 [Example 4, 2-(2-Chlorophenyl)-3-(3,5-dimethoxyphenyl)-9-(1-methyl-1H-pyrazol-4-yl)imidazo[2,1-f][1,6]naphthyridine]

Ki: 100 to 400 nM
Compound: Cn1cc(-c2cnc3ccn4c(-c5cnn(C)c5)c(-c5ccccc5Cl)nc4c3c2)cn1 [Example 5, 2-(2-Chlorophenyl)-3,9-bis(1-methyl-1H-pyrazol-4-yl)imidazo[2,1-f][1,6]naphthyridine]

Ki: 10 to 100 nM
Compound: Cc1nn(C)cc1-c1cnc2ccn3cc(-c4c(F)cccc4Cl)nc3c2c1 [Example 12, 2-(2-Chloro-6-fluorophenyl)-9-(1,3-dimethyl-1H-pyrazol-4-yl)imidazo[2,1-f][1,6]naphthyridine]

Ki: < 10 nM
Compound: Cn1cc(-c2cnc3ccn4c(C5CC5)c(-c5ccccc5Cl)nc4c3n2)cn1 [Example 13, 9-(2-Chlorophenyl)-8-cyclopropyl-2-(1-methyl-1H-pyrazol-4-yl)imidazo[1′,2′:1,2]pyrido[3,4-b]pyrazine]

Ki: < 10 nM
Compound: CC(=O)N1CCC(n2cc(-c3cnc4ccn5cc(-c6c(Cl)cccc6Cl)nc5c4c3)cn2)C1 (stereo not shown) [Example 15, 1-(3-(4-(2-(2,6-Dichlorophenyl)imidazo[2,1-f][1,6]naphthyridin-9-yl)-1H-pyrazol-1-yl)pyrrolidin-1-yl)ethan-1-one]

Ki: < 10 nM
Compound: O=C(O)[C@H]1CC[C@H](n2cc(-c3cnc4ccn5c(C6CC6)c(-c6ccccc6Cl)nc5c4c3)cn2)CC1 [Example 16, (1R,4R)-4-(4-(2-(2-Chlorophenyl)-3-cyclopropylimidazo[2,1-f][1,6]naphthyridin-9-yl)-1H-pyrazol-1-yl)cyclohexane-1-carboxylic acid]

Ki: < 10 nM
Compound: Cn1c(-c2c(F)cccc2Cl)nc2c3nc(-c4cnn(C5CC(O)C5)c4)cnc3ccc21 (stereo not shown) [Example 21, 3-(4-(2-(2-Chloro-6-fluorophenyl)-3-methyl-3H-imidazo[4,5-f]quinoxalin-8-yl)-1H-pyrazol-1-yl)cyclobutan-1-ol]

Ki: < 10 nM
Compound: CC(=O)N1CCN(c2ccc(-c3cnc4ccc5c(nc(-c6c(F)cccc6Cl)n5C)c4n3)cn2)CC1 [Example 22, 1-(4-(5-(2-(2-Chloro-6-fluorophenyl)-3-methyl-3H-imidazo[4,5-f]quinoxalin-8-yl)pyridin-2-yl)piperazin-1-yl)ethan-1-one]

Ki: < 10 nM
Compound: Cc1cccc(C)c1-c1nc2c3cc(-c4cnn([C@H]5CCN(C(=O)CO)C5)c4)cnc3ccn2c1C [Example 26, (S)-1-(3-(4-(2-(2,6-Dimethylphenyl)-3-methylimidazo[2,1-f][1,6]naphthyridin-9-yl)-1H-pyrazol-1-yl)pyrrolidin-1-yl)-2-hydroxyethan-1-one]
